Laboratory results taken from publication PMC9503459, “Antifungal Activity, Structural Stability, and Immunomodulatory Effects on Human Immune Cells of Defensin from the Lentil Lens culinaris” (Membranes, 2022).
Values joined by “and” are separate entries in the source; they are usually repeats but may differ in a detail not shown here. Identical values can stand only once. No end group written: not given here.

Tested on: clinical isolate of C. krusei (225/2)
Assay: Antifungal microdilution assay, C. krusei
Format: cell-based, Candida krusei
Conditions: 24 h; for inhibition of the growth: C. krusei
Description: The clinical isolates of Candida albicans (v47a3), C. krusei (225/2) and C. glabrata (252/2) were collected from patients with human immunodeficiency virus (HIV) infection and provided by G.N. Gabrichevsky Research Institute for Epidemiology and Microbiology (Moscow, Russia). Strains stocks were kept at −70 ℃ in 10% nonfat milk with 10% glycerol.
Antifungal susceptibility tests were performed by the microdilution method using 96-well microplates. Yeast cells in stock were inoculated onto modified YPD (yeast extract 5 g/L, peptone 10 g/L, glucose 10 g/L) agar plates, and incubated for 24 h at 37 ℃. After replating, cells were cultured in modified YPD broth at 37 ℃ to optical density 1.0 at 540 nm. Further, yeast cells in modified YPD broth at concentration of 5 × 10^4 cells/mL were mixed with equal volumes of serial two-fold dilutions of the peptide in water which started at the highest peptide concentration of 200 µM. Final peptide concentrations in the wells were 100, 50, 25, 12.5, 6.25, 3.125, and 1.56 μM. Controls without defensin were also tested. Plates were incubated at 30 ℃ during 24 h. Yeast growth was estimated using inverted microscope as well as by measuring the optical density at 540 nm. Percentage of growth inhibition was defined as: growth inhibition (%) = ((Acontrol − Asample)/Acontrol) × 100%. All of the experiments were performed twice in triplicate. The t-test was performed to study the statistical difference (p-value) between the means of controls and samples with different peptide concentrations. The experiment with lentil Lens culinaris lipid transfer protein Lc-LTP2 was carried out for comparison.

Substance: Lc-def: defensin from lentil Lens culinaris seeds (UniProt:B3F051), recombinant, overexpressed in Escherichia coli (KTCENLSDSFKGPCIPDGNCNKHCKEKEHLLSGRCRDDFRCWCTRNC; disulfide (positions not given here); ends not checked; also: disulfide bonds present, pairing not given here; UniProt B3F051 28-74, looked up)
- IC50 (C. krusei clinical isolate, microdilution, modified YPD, 30 °C, OD540, twice in triplicate, read-out: concentration causing 50% growth inhibition): 25 to 50 µM and 25 µM
- inhibition of the growth (50 μM peptide): ~90%
- inhibition of the growth (100 μM peptide): < 100%
